Assay results reported in PMC4810398, “Protein-Flavonoid Interaction Studies by a Taylor Dispersion Surface Plasmon Resonance (SPR) Technique: A Novel Method to Assess Biomolecular Interactions” (Biosensors, 2016).
Where “and” joins values, the source holds several entries; their conditions need not be identical. Identical values can stand only once. Like-named read-outs stand apart in the source and are kept apart here.

Experiments:
[1] = biological target: T1, human serum albumin (HSA) (Homo sapiens, UniProt P02768); assay: Taylor dispersion (OneStep) SPR, kinetic analysis of flavonoids on immobilized HSA; assay type: binding; conditions: for kon / koff: pH 7.4, HSA
T1 construct: purchased Sigma Aldrich
Protocol: (§1) Hydroxyl-gel modified sensor chips and coupling reagents for the Pioneer SPR instrument (SensiQ Technologies, Oklahoma City, OK, USA) were obtained from Xantec (Duesseldorf, Germany). […] All analyses were performed at 25 °C. 10 mM HEPES (pH 7.4) with 150 mM NaCl, 0.005% Tween-20, 1.26 mM EDTA, and 5% DMSO was used as the running buffer.
(§2) HSA (essentially fatty acid free; Sigma Aldrich, St. Louis, MO, USA) and GSTP1 (Fitzgerald Industries International, North Acton, MA, USA) (50 μg/mL in 10 mM sodium acetate, pH 5.0) were immobilized on polycarboxylate hydrogel sensor chip surfaces using a standard amine-coupling protocol (flow rate of 10 μL/min) to obtain a density of 10–12 kRU [18]. Each of the four flavonoids was dissolved in DMSO to achieve a high concentration, then further diluted to a final 5% DMSO concentration in running buffer. Typically, the flavonoid concentration series spanned 0.01–500 μM. Five blanks were analyzed at the beginning of the analysis, and the remaining blanks were randomly injected throughout the analysis for double-referencing purposes.
(§3) In this study, we explored the SensiQ Pioneer’s dynamic SPR capability (also known as the OneStep® injection method), which is essentially a Taylor dispersion to create a gradient injection to quantify biomolecular interactions. In the Taylor dispersion method, analyte concentration is initially uniform, but it gradually changes into a sigmoidal gradient due to the combined actions of analyte diffusion and convective laminar flow within the dispersion capillary. This method saves sample preparation time, lessens the need for limited-supply sample materials, and eliminates possible human errors in the preparation of sample dilutions. Since the compounds are screened over a broader dilution range, content-rich data can be obtained from the preliminary screening step itself, and oftentimes, secondary screening can be avoided. A Taylor dispersion gradient injection of sucrose (3% w/v in running buffer) was performed in parallel as a diffusion standard to account for experimental deviations such as buffer viscosity, flow rate, temperature, etc. The analytes were injected in running buffer using the same Taylor diffusion gradient injection mode with a flow rate of 25 μL/min.
(§4) SPR response data (sensorgrams) were zeroed at the beginning of each injection and double referenced. For kinetic analyses, the responses were plotted against the analyte concentration and fit to a 1:1 (A + B = AB) or 1:2 (A + 2B = AB1 + AB2) binding model using Qdat analysis software (SensiQ Technologies, Inc., Oklahoma City, OK, USA) and GraphPad Prism 5.04 (GraphPad Software Inc., La Jolla, CA, USA).

[2] = biological target: T2, glutathione S-transferase pi isoform-1 (GSTP1) (Homo sapiens, UniProt P09211); assay: Taylor dispersion (OneStep) SPR, equilibrium analysis of flavonoids on immobilized GSTP1; conditions: GSTP1, one binding site, 1:1 equilibrium analysis model, 25 °C
T2 construct: purchased Fitzgerald Industries International
Protocol: as §1, §2, §3
as §4, with “USA). […]” for “USA).”

[3] = biological target: T1, human serum albumin (HSA); assay: Conventional (standard fixed-concentration injection) SPR, HSA-quercetin validation; assay type: binding
Protocol: as §1, §2
For assay validation, a conventional SPR method was used as a comparison. The interaction of HSA with quercetin was chosen for validation. For the conventional SPR method, analyte dilutions were prepared manually in a twofold dilution series starting with 500 μM as the highest concentration. […]

[4] = HSA, Site 1, 25 °C, OneStep SPR, global kinetic fit (1:2 model; kaempferol 1:1), read-out: KD (equilibrium dissociation constant), Site 1
[5] = human, Site 1, 25 °C, OneStep SPR, global kinetic fit (1:2 model; kaempferol 1:1), read-out: ka (association rate constant), Site 1
[6] = human, Site 1, 25 °C, OneStep SPR, global kinetic fit (1:2 model; kaempferol 1:1), read-out: kd (dissociation rate constant), Site 1
[7] = human, Site 2, 25 °C, OneStep SPR, 1:2 model, read-out: ka (association rate constant), Site 2
[8] = human, Site 2, 25 °C, OneStep SPR, 1:2 model, read-out: kd (dissociation rate constant), Site 2

T2 sequence (P09211 whole entry, canonical isoform): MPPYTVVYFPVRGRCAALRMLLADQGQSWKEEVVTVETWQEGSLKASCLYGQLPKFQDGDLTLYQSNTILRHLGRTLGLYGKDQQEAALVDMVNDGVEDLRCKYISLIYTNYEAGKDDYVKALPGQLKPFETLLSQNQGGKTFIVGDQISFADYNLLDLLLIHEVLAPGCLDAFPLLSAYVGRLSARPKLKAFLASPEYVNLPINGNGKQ
T1 sequence (P02768 25-609): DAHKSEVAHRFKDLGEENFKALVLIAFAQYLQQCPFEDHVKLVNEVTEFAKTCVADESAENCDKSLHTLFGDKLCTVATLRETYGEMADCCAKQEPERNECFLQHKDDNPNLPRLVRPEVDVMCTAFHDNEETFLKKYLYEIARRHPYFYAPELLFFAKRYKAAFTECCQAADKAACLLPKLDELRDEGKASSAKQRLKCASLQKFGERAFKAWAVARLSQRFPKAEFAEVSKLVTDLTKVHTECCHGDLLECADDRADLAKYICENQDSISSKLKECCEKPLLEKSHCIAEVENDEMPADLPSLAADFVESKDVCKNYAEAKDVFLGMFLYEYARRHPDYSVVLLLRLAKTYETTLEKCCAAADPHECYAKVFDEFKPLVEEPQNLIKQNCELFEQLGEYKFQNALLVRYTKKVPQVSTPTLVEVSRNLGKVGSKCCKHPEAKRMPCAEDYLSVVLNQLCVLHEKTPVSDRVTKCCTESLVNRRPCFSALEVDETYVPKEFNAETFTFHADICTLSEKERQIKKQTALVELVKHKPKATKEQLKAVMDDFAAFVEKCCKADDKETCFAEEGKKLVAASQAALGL

| SMILES | Kd [1, 4] [µM] | kon [1, 5] [M⁻¹ s⁻¹] | koff [1, 6] [s⁻¹] | Kd [2] | Kd ([1]; human, pH 7.4) [µM] | kon [1, 7] [M⁻¹ s⁻¹] | koff [1, 8] [s⁻¹] | Kd ([3]; HSA, conventional SPR, two fold dilution series from 500 μM, quadruplicate, 1:2 model, read-out: KD1 (affinity towards HSA)) [µM] | Kd ([3]; human, pH 7.4) [µM] |
| --- | --- | --- | --- | --- | --- | --- | --- | --- | --- |
| O=c1c(O)c(-c2ccc(O)cc2)oc2cc(O)cc(O)c12 [Kaempferol, kaempferol] | 0.037 | 48400 ± 6e+06 | 0.002 ± 0.002 | 45 ± 0.2 µM | – | – | – | – | – |
| O=c1cc(-c2ccc(O)c(O)c2)oc2cc(O)cc(O)c12 [Luteolin, luteolin] | 63.4 | 3200 ± 300000 | 0.205 ± 0.005 | 31.5 ± 0.2 µM | 406 | 17.1 ± 1 | 0.007 ± 0.001 | – | – |
| O=c1c(O)c(-c2ccc(O)c(O)c2)oc2cc(O)cc(O)c12 [Quercetin, quercetin] | 0.063 | 240000 ± 1e+08 | 0.016 ± 0.003 | ~27.5 µM and 27.5 µM | > 500 | 100 ± 1000 | 0.405 ± 0.004 | 0.068 ± 0.002 | > 500 |
| Oc1ccc(/C=C/c2cc(O)cc(O)c2)cc1 [Resveratrol, resveratrol] | 0.4 | 7000 ± 200000 | 0.003 ± 0.002 | 78 ± 0.1 µM | 180 | 2900 ± 600000 | 0.52 ± 0.003 | – | – |
